The target of one assay is T1, axV-mNG (Homo sapiens, UniProt P08758).
T1 construct: gene ANXA5; N-terminal 6xHis, annexin V with C-terminal mNeonGreen fusion (also printed mNG-axV), tags kept, pET-28a(+), E. coli Rosetta-Gami 2(DE3)pLysS, Ni-NTA
T1 sequence (P08758 2-320): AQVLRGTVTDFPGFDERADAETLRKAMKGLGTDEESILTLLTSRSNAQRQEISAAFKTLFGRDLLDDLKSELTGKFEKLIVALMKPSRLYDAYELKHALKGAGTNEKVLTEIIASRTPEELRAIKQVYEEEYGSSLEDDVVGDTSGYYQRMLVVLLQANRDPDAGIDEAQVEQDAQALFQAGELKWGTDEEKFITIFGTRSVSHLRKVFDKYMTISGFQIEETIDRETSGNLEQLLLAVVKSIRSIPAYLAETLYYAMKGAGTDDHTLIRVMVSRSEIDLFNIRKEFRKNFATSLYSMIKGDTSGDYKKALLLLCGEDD
Put plainly: equilibrium binding to liposomes, flow cytometry. Particulars: 20:80 PS/PC liposomes, not free lipid; Kd is the protein concentration at half occupation; Hill coefficient ~1.2; HBS pH 7.4 with 2.5 mM CaCl2; 1 h; read-out: Kd (apparent, Hill). A general note: In flow cytometry, cells or beads pass a laser one at a time.

The target in a further assay is T2, mNG-lactC2 (Bos taurus, UniProt Q95114).
T2 construct: gene MFGE8; C2 domain (residues 270-427), N-terminal 6xHis and mNeonGreen fusion kept, pET-28a(+), E. coli Rosetta-Gami 2(DE3)pLysS, Ni-NTA
T2 sequence (Q95114 270-427): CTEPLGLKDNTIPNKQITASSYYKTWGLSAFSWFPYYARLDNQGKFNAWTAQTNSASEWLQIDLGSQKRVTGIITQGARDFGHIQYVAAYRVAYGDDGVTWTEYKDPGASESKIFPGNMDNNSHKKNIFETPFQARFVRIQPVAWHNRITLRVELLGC
Nature of the assay: equilibrium binding to liposomes, flow cytometry. The following applies: 20:80 PS/PC liposomes, not free lipid; Kd is the protein concentration at half occupation; Hill coefficient ~1.2; HBS pH 7.4, no calcium; 1 h; read-out: Kd (apparent, Hill).

pKd: −log10 of the molar value.

The pKd is the Kd on a negative log10 scale, so that one unit is a factor of ten. In the case of “1,2-diacyl-sn-glycero-3-phospho-L-serine [phosphatidylserine]”, the results for the negative logarithm of the Kd (pKd) at axV-mNG and on mNG-lactC2 were 8.00 and 6.97, respectively.

These data come from paper PMC12109337, “Engineered Fluorescent Variants of Lactadherin C2 Domain for Phosphatidylserine Detection in Flow Cytometry” (Biomolecules, 2025).
